Source: patent US4339427A, “Radioimmunoassay of thymosinα” (Hoffmann-la Roche Inc., priority 1980, dated 1982)
Where no end group is shown, it is not given here.

Test system: rabbit anti-thymosin α1 antiserum
Assay: radioimmunoassay for thymosin α1 (inhibition of tracer binding / cross-reactivity, double antibody method)
Settings: for ED50 - Amount of protein (ng) required to produce a 50% inhibition in RIA: Table 1, 125I-[Tyr1]-thymosin α1 tracer
Method: a. Preparation of antisera
Synthetic thymosin α1 was coupled to Keyhole Limpet Hemocyanin (KLH) by means of glutaraldehyde using the following procedure. Equivalent amounts (dry weight) of each protein, thymosin α1 and hemocyanin, were dissolved in 0.25 M NaPO4, pH 7.0 buffer at a concentration of 2 mg/ml. […] The reaction was allowed to continue for 3 hours while being stirred at room temperature. The reaction mixture was diluted in sterile saline to a final concentration of thymosin α1 of 100 μg/ml. The solution of coupled thymosin α1 was aliquoted and stored at -20° C.
The mixture of products resulting from the cross-linking reactions carried out at room temperature was not fractionated or purified in any way. The thymosin α1 KLH conjugate was diluted with sterile normal saline and stored frozen for immunizations. Rabbits were immunized by administering 100 μg thymosin α1 (as the KLH conjugate) in emulsion with Ereund's Complete Adjuvant at 15-20 intradermal sites on the back of each rabbit according to the method of Vaitukaitis et al., J. Clin. Endoch. […] Weekly boosts of 50 μg thymosin α1 per animal in Freund's Incomplete Adjuvant were also administered at multiple intradermal sites.
b. Radioiodination of [Tyr^1 ]-thymosin α1
After a reaction time of 30 seconds at room temperature, the enzyme was inhibited by the addition of […]. […] The tracer was diluted 1:2,000 in immunoassay buffer to provide 4,000-5,000 cpm per assay tube, which is equivalent to less than 1 pg peptide mass per assay tube.
Separation of free from bound tracer is carried out by the addition of goat anti-rabbit gamma globulin serum, incubation for 1 hour at 37° C. and finally incubation at 4° C. for 16 hours. The immunoprecipitate is pelleted by centrifugation at 2500 rpm for 20 minutes, the supernatant is aspirated and discarded, and the radioactivity in the immunoprecipitate is counted in an automatic gamma spectrometer. The counts per minute for standards and unknowns are corrected for non-specific background and compared to the total counts per minute for the reaction tubes where no competing antigen was introduced.

| Molecule | ED50 - Amount of protein (ng) required to produce a 50% inhibition in RIA | other results |
| --- | --- | --- |
| Cytochrome C (equine): Cytochrome C (equine) | > 200,000 ng | – |
| Fetuin (bovine): Fetuin (bovine) | > 250,000 ng | – |
| Glucagon (porcine): Glucagon (porcine) | > 500,000 ng | – |
| Insulin (porcine): Insulin (porcine) | > 200,000 ng | – |
| Natural thymosin α1: heat stable, acidic polypeptide composed of 28 amino acid residues, isolated from calf thymus thymosin fraction 5 (SDAAVDTSSEITTKDLKEKKEVVEEAEN; ends and bridges not checked; UniProt P01252 2-29, looked up) | 0.45 ng | – |
| RPPGFSPFR [Bradykinin, reference compound] | > 50,000 ng | – |
| Serum albumin (bovine): Serum albumin (bovine) | > 250,000 ng | – |
| Synthetic thymosin α1: thymosin α1 obtained by peptide synthesis procedures (SDAAVDTSSEITTKDLKEKKEVVEEAEN; ends and bridges not checked; UniProt P06454 2-29, looked up) [reference compound] | 0.40 ng | – |
| TP.5: TP.5 (Ortho Pharmaceuticals) [reference compound] | > 15,000 ng | cross-reactivity / competition in the RIA (in words): no cross-reactivity |
| thymopoietin II fragment 29-41: thymopoietin II fragment 29-41 (Bachem, Inc.) (AGEQRKDVYVQLY; UniProt P42167 29-41, looked up, fragment) [reference compound] | – | cross-reactivity / competition in the RIA (in words): no cross-reactivity |
| thymosin α1: heat stable, acidic polypeptide composed of 28 amino acid residues (SDAAVDTSSEITTKDLKEKKEVVEEAEN; ends and bridges not checked; UniProt P06454 2-29, looked up) | – | ED50 (50% inhibition) of standard curve (RIA standard curve): 130 to 160 pg; operating range for the assay (RIA standard curve): 15 to 800 pg; slope at inflection point (50% inhibition) (RIA standard curve): -1.0; minimal detectable dose (10% inhibition) (RIA standard curve, typically): 8 to 15 pg |
| alpha-fetoprotein: oncodevelopmental antigen alpha-fetoprotein (Hoffmann-La Roche Inc.) (protein, UniProt P02771 19-609, looked up) Alpha-fetoprotein: RTLHRNEYGIASILDSYQCTAEISLADLATIFFAQFVQEATYKEVSKMVKDALTAIEKPTGDEQSSGCLENQLPAFLEELCHEKEILEKYGHSDCCSQSEEGRHNCFLAHKKPTPASIPLFQVPEPVTSCEAYEEDRETFMNKFIYEIARRHPFLYAPTILLWAARYDKIIPSCCKAENAVECFQTKAATVTKELRESSLLNQHACAVMKNFGTRTFQAITVTKLSQKFTKVNFTEIQKLVLDVAHVHEHCCRGDVLDCLQDGEKIMSYICSQQDTLSNKITECCKLTTLERGQCIIHAENDEKPEGLSPNLNRFLGDRDFNQFSSGEKNIFLASFVHEYSRRHPQLAVSVILRVAKGYQELLEKCFQTENPLECQDKGEEELQKYIQESQALAKRSCGLFQKLGEYYLQNAFLVAYTKKAPQLTSSELMAITRKMAATAATCCQLSEDKLLACGEGAADIIIGHLCIRHEMTPVNPGVGQCCTSSYANRRPCFSSLVVDETYVPPAFSDDKFIFHKDLCQAQGVALQTMKQEFLINLVKQKPQITEEQLEAVIADFSGLLEKCCQGQEQEVCFAEEGQKLISKTRAALGV | – | cross-reactivity / competition in the RIA (in words): do not cross-react |

Second part, led by results:

| ED50 - Amount of protein (ng) required to produce a 50% inhibition in RIA | Molecule | other results |
| --- | --- | --- |
| > 160,000 ng | Erythopoietin (human): Erythopoietin (human) | – |
| > 200,000 ng | Hemoglobin (human): Hemoglobin (human) | – |
| > 50,000 ng | Transferrin (human): Transferrin (human) | – |
| > 25,000 ng | CEA: oncodevelopmental antigen, carcinoembryonic antigen (Hoffmann-La Roche Inc.) (protein, UniProt P06731 35-685, looked up) Cell adhesion molecule CEACAM5: KLTIESTPFNVAEGKEVLLLVHNLPQHLFGYSWYKGERVDGNRQIIGYVIGTQQATPGPAYSGREIIYPNASLLIQNIIQNDTGFYTLHVIKSDLVNEEATGQFRVYPELPKPSISSNNSKPVEDKDAVAFTCEPETQDATYLWWVNNQSLPVSPRLQLSNGNRTLTLFNVTRNDTASYKCETQNPVSARRSDSVILNVLYGPDAPTISPLNTSYRSGENLNLSCHAASNPPAQYSWFVNGTFQQSTQELFIPNITVNNSGSYTCQAHNSDTGLNRTTVTTITVYAEPPKPFITSNNSNPVEDEDAVALTCEPEIQNTTYLWWVNNQSLPVSPRLQLSNDNRTLTLLSVTRNDVGPYECGIQNELSVDHSDPVILNVLYGPDDPTISPSYTYYRPGVNLSLSCHAASNPPAQYSWLIDGNIQQHTQELFISNITEKNSGLYTCQANNSASGHSRTTVKTITVSAELPKPSISSNNSKPVEDKDAVAFTCEPEAQNTTYLWWVNGQSLPVSPRLQLSNGNRTLTLFNVTRNDARAYVCGIQNSVSANRSDPVTLDVLYGPDTPIISPPDSSYLSGANLNLSCHSASNPSPQYSWRINGIPQQHTQVLFIAKITPNNNGTYACFVSNLATGRNNSIVKSITVSASGTSPGLSA | cross-reactivity / competition in the RIA (in words): do not cross-react |
| 50,000 ng | Myoglobin (equine): Myoglobin (equine) (protein, UniProt P68082 2-154, looked up) Myoglobin: GLSDGEWQQVLNVWGKVEADIAGHGQEVLIRLFTGHPETLEKFDKFKHLKTEAEMKASEDLKKHGTVVLTALGGILKKKGHHEAELKPLAQSHATKHKIPIKYLEFISDAIIHVLHSKHPGDFGADAQGAMTKALELFRNDIAAKYKELGFQG | – |
